According to patent US10844023B2 (Washington University, priority 2017, dated 2020):

System: Mfn2 null MEFs
Assay: Mitochondrial elongation (aspect ratio) fusogenicity assay
Type: cell-based, mouse
Design: % long compare to B: dose or concentration left out as unconfirmed
Conditions: mitochondrial elongation relative to Cpd B (B01 = 100); Mfn2 null MEFs, compound overnight as printed (FIG. 48)
Source text: A cultured murine embryonic fibroblast assay system was used in which mitochondrial elongation (an increase in aspect ratio) reflects enhanced mitochondrial fusion.
A pharmacophore model was generated based on the interactions of HR1 and HR2 domains in the calculated structural model of Mfn2 in the closed conformation. The key features included hydrophobic interactions involving Mfn2 HR1: Val372 and Met376, and aromatic interactions and hydrogen bonding involving Mfn2 HR1 His380. […] A library comprising ˜14 million commercially available compounds was prepared in silico and evaluated using PHASE to fit these criteria. Top ranked hits were clustered, and filtered based on pharmacological properties using Qikprop. The top 55 (see TABLE 4) commercially available small molecules conforming to the model were selected for functional screening and purchased in 1 mg aliquots. […] Images were acquired by confocal microscopy. Each compound was scored for fusogenicity (see e.g., FIG. 24A) and % cell death (see e.g., FIG. 24B).
Cells were excited with 408 nm (Hoechst), […] (MitoTracker Green and Calcein AM, GFP), or 637 nm (TMRE, MitoTracker Orange, Ethidium homodimer-1, and AF594-Dextran) laser diodes. For mitochondrial elongation studies mitochondrial aspect ratio (long axis/short axis) was calculated using automated edge detection and Image J software. Mitochondrial depolarization was calculated as % of green mitochondria visualized on MitoTracker Green and TMRE merged images, expressed as green/(green+yellow mitochondria)×100.

CC(Sc1nnc(-c2ccco2)n1-c1ccccc1)C(=O)Nc1sc2c(c1C(N)=O)CCC2 (stereo not drawn) [1-06, 2-(2-{[5-(furan-2-yl)-4-phenyl-4H-1,2,4-triazol-3-yl]sulfanyl}propana-mido)-4H,5H,6H-cyclopenta[b]thiophene-3-carboxamide]
% long compare to B: 10%

Cn1c(SCC(=O)Nc2sc3c(c2C(N)=O)CCC3)nnc1-c1ccc(F)cc1 [1-A3, 2-(2-{[5-(4-fluorophenyl)-4-methyl-4H-1,2,4-triazol-3-yl]sulfanyl}acetamido)-4H,5H,6H-cyclopenta[b]-thiophene-3-carboxamide]
% long compare to B: −10%

CC1CCc2c(sc(NC(=O)CSc3nnc4n3CCCCC4)c2C(N)=O)C1 (stereo not drawn) [1-A4, 6-methyl-2-(2-{5H,6H,7H,8H,9H-[1,2,4]triazolo[4,3-a]azepin-3-ylsulfanyl}acetamido)-4,5,6,7-tetrahydro-1-benzothiophene-3-carboxamide]
% long compare to B: 2%

NC(=O)c1c(NC(=O)CSc2nc(C3CC3)n(-c3ccccc3)n2)sc2c1CCC2 [1-A5, 2-{2-[(5-cyclopropyl-1-phenyl-1H-1,2,4-triazol-3-yl)sulfanyl]acetamido}-4H,5H,6H-cyclopenta[b]thiophene-3-carboxamide]
% long compare to B: −6%

COc1ccc(-n2ccnc2SC(C)C(=O)Nc2sc3c(c2C(N)=O)CCC3)cc1 (stereo not drawn) [1-A7, 2-(2-{[1-(4-methoxyphenyl)-1H-imidazol-2-yl]sulfanyl}-propanamido)-4H,5H,6H-cyclopenta[b]thiophene-3-carboxamide]
% long compare to B: −24%

CCn1c(Cc2ccccc2)nnc1SC(C)C(=O)Nc1sc2c(c1C(N)=O)CCC2 (stereo not drawn) [1-A8, 2-{2-[(5-benzyl-4-ethyl-4H-1,2,4-triazol-3-yl)sulfanyl]-propanamido}-4H,5H,6H-cyclopenta[b]thiophene-3-carboxamide]
% long compare to B: 47%

NC(=O)c1c(NC(=O)CSc2nnc3n2CCCCC3)sc2c1CCC2 [1-A10, 2-(2-{5H,6H,7H,8H,9H-[1,2,4]triazolo[4,3-a]azepin-3-ylsulfanyl}acetamido)-4H,5H,6H-cyclopenta[b]thio-phene-3-carboxamide]
% long compare to B: 45%

CC1CCc2c(sc(NC(=O)CSc3nnc(C4CC4)n3C)c2C(N)=O)C1 (stereo not drawn) [1-A11, 2-{2-[(5-cyclopropyl-4-methyl-4H-1,2,4-triazol-3-yl)sulfanyl]acetamido}-6-methyl-4,5,6,7-tetrahydro-1-benzothiophene-3-carboxamide]
% long compare to B: 6%

CC(Sc1nnc(N2CCCCC2)n1-c1ccccc1)C(=O)Nc1sc2c(c1C(N)=O)CCC2 (stereo not drawn) [1-A12, 2-(2-{[4-phenyl-5-(piperidin-1-yl)-4H-1,2,4-triazol-3-yl]sul-fanyl]propanamido)-4H,5H,6H-cyclopenta[b]thiophene-3-carboxamide]
% long compare to B: −8%

CC1CCc2c(sc(NC(=O)CSc3nnc(C4CC4)n3-c3ccccc3)c2C#N)C1 (stereo not drawn) [1-B2, N-(3-cyano-6-methyl-4,5,6,7-tetrahydro-1-benzothiophen-2-yl)-2-[(5-cyclopropyl-4-phenyl-4H-1,2,4-triazol-3-yl)sulfanyl]acetamide]
% long compare to B: −11%

NC(=O)c1c(NC(=O)CSc2nnc(C3CC3)n2-c2ccccc2)sc2c1CCC2 [1-B3, 2-{2-[(5-cyclopropyl-4-phenyl-4H-1,2,4-triazol-3-yl)sulfanyl]acetamido}-4H,5H,6H-cyclopenta[b]thiophene-3-carboxamide]
% long compare to B: 90%

Cn1c(SCC(=O)Nc2sc3c(c2C(N)=O)CCC3)nnc1C(F)(F)F [1-B4, 2-(2-{[4-methyl-5-(trifluoro-methyl)-4H-1,2,4-triazol-3-yl]sulfanyl}acetamido)-4H,5H,6H-cyclopenta[b]-thiophene-3-carboxamide]
% long compare to B: 10%

Cn1c(SCC(=O)Nc2sc3c(c2C(=O)NCc2ccccc2)CCCC3)nnc1C1CC1 [1-B5, N-benzyl-2-{2-[(5-cyclopropyl-4-methyl-4H-1,2,4-triazol-3-yl)sulfanyl]acetamido}-4,5,6,7-tetrahydro-1-benzothiophene-3-carboxamide]
% long compare to B: −31%

COCCNC(=O)c1c(NC(=O)CSc2nnc(C3CC3)n2C)sc2c1CCCC2 [1-B6, 2-{2-[(5-cyclopropyl-4-methyl-4H-1,2,4-triazol-3-yl)sulfanyl]acetamido}-N-(2-methoxyethyl)-4,5,6,7-tetrahydro-1-benzothiophene-3-carboxamide]
% long compare to B: 68%

CC(Sc1nnc(Cc2cccs2)n1C)C(=O)Nc1sc2c(c1C(N)=O)CCC2 (stereo not drawn) [1-B7, 2-[2-({4-methyl-5-[(thiophen-2-yl)methyl]-4H-1,2,4-triazol-3-yl}sulfanyl)propanamido]-4H,5H,6H-cyclopenta[b]thio-phene-3-carboxamide]
% long compare to B: 41%

Cc1occc1-c1nnc(SC(C)C(=O)Nc2sc3c(c2C(N)=O)CCC3)n1-c1ccccc1 (stereo not drawn) [1-B8, 2-(2-{[5-(2-methylfuran-3-yl)-4-phenyl-4H-1,2,4-triazol-3-yl]sulfanyl}propanamido)-4H,5H,6H-cyclopenta[b]thio-phene-3-carboxamide]
% long compare to B: 20%

O=C(NCCSCc1ccccc1F)NC1CCCCC1 [1-B10, 1-cyclohexyl-3-(2-{[(2-fluorophenyl)methyl]sulfanyl}ethyl)urea]
% long compare to B: 6%

CC1CCc2c(sc(NC(=O)CSc3nc(C4CC4)n(-c4ccccc4)n3)c2C(N)=O)C1 (stereo not drawn) [1-B11, 2-{2-[(5-cyclopropyl-1-phenyl-1H-1,2,4-triazol-3-yl)sulfanyl]acetamido}-6-methyl-4,5,6,7-tetrahydro-1-benzothiophene-3-carboxamide]
% long compare to B: −12%

N#Cc1c(NC(=O)CSc2nnc(C3CC3)n2-c2ccccc2)sc2c1CCCC2 [1-C1, N-(3-cyano-4,5,6,7-tetrahydro-1-benzothiophen-2-yl)-2-[(5-cyclopropyl-4-phenyl-4H-1,2,4-triazol-3-yl)sulfanyl]acetamide]
% long compare to B: 19%

Cc1nnc(SCC(=O)Nc2sc3c(c2C(N)=O)CCC3)n1Cc1ccccc1 [1-C2, 2-{2-[(4-benzyl-5-methyl-4H-1,2,4-triazol-3-yl)sulfanyl]acetamido}-4H,5H,6H-cyclopenta[b]thiophene-3-carboxamide]
% long compare to B: −18%

CC1CCc2c(sc(NC(=O)CSc3nncn3-c3ccccc3)c2C(N)=O)C1 (stereo not drawn) [1-C3, 6-methyl-2-{2-[(4-phenyl-4H-1,2,4-triazol-3-yl)sulfanyl]acetamido}-4,5,6,7-tetrahydro-1-benzothiophene-3-carboxamide]
% long compare to B: −9%

NC(=O)c1c(NC(=O)CSc2nncn2-c2ccccc2)sc2c1CCC2 [1-C4, 2-{2-[(4-phenyl-4H-1,2,4-triazol-3-yl)sulfanyl]acetamido}-4H,5H,6H-cyclopenta-[b]thiophene-3-carboxamide]
% long compare to B: −13%

Cc1ccccc1-n1cnnc1SCC(=O)Nc1sc2c(c1C(N)=O)CCC2 [1-C5, 2-(2-{[4-(2-methylphenyl)-4H-1,2,4-triazol-3-yl]sulfanyl}acet-amido)-4H,5H,6H-cyclopenta-[b]thiophene-3-carboxamide]
% long compare to B: 12%

Cn1c(CC2CCS(=O)(=O)C2)nnc1SCC(=O)Nc1sc2c(c1C(N)=O)CCCC2 (stereo not drawn) [1-C6, 2-[2-({5-[(1,1-dioxo-1λ^6-thiolan-3-yl)methyl]-4-methyl-4H-1,2,4-triazol-3-yl}sulfanyl)-acetamido]-4,5,6,7-tetrahydro-l-benzothiophene-3-carboxamide]
% long compare to B: 23%

CC(Sc1nnc(C2CC2)n1Cc1ccccc1)C(=O)Nc1sc2c(c1C(N)=O)CCC2 (stereo not drawn) [1-C7, 2-{2-[(4-benzyl-5-cyclopropyl-4H-1,2,4-triazol-3-yl)sulfanyl]-propanamido}-4H,5H,6H-cyclopenta[b]thiophene-3-carboxamide]
% long compare to B: −9%

NC(=O)c1c(NC(=O)CSc2nnc(Cc3cccs3)n2-c2ccccc2)sc2c1CCC2 [1-C8, 2-[2-({4-phenyl-5-[(thiophen-2-yl)methyl]-4H-1,2,4-triazol-3-yl}sulfanyl)acetamido]-4H,5H,6H-cyclopenta[b]thio-phene-3-carboxamide]
% long compare to B: 35%

Cc1occc1-c1nnc(SC(C)C(=O)Nc2sc3c(c2C(N)=O)CCC3)n1C (stereo not drawn) [1-C9, 2-(2-{[4-methyl-5-(2-methylfuran-3-yl)-4H-1,2,4-triazol-3-yl]sulfanyl}propanamido)-4H,5H,6H-cyclopenta[b]thio-phene-3-carboxamide]
% long compare to B: −3%

COC(=O)c1c(NC(=O)CSc2nnc(C)n2-c2ccccc2)sc2c1CCC2 [1-C10, methyl 2-{2-[(5-methyl-4-phenyl-4H-1,2,4-triazol-3-yl)sulfanyl]acetamido}-4H,5H,6H-cyclopenta[b]thiophene-3-carboxylate]
% long compare to B: 39%

Cn1c(Cc2cccs2)nnc1SCC(=O)Nc1sc2c(c1C(N)=O)CCC2 [1-C11, 2-[2-({4-methyl-5-[(thiophen-2-yl)methyl]-4H-1,2,4-triazol-3-yl}sulfanyl)acetamido]-4H,5H,6H-cyclopenta[b]thio-phene-3-carboxamide]
% long compare to B: 1%

CC(Sc1nnc(-c2cccs2)n1C1CC1)C(=O)Nc1sc2c(c1C(N)=O)CCC2 (stereo not drawn) [1-C12, 2-(2-{[4-cyclopropyl-5-(thiophen-2-yl)-4H-1,2,4-triazol-3-yl]-sulfanyl}propanamido)-4H,5H,6H-cyclopenta[b]-thiophene-3-carboxamide]
% long compare to B: 13%
